The source of these data is US10233186B2, “Inhibitors of activin receptor-like kinase” (BLUEPRINT MEDICINES CORPORATION, priority 2016, dated 2019).

The target in experiment [1] is T1, ALK2 R206H (GST-tagged mutant ALK2) (Homo sapiens, UniProt Q04771, R206H).
T1 construct: purchased Carna Bioscience or ThermoFisher 09-148 or PV6232
T1 sequence (Q04771 21-509 R206H): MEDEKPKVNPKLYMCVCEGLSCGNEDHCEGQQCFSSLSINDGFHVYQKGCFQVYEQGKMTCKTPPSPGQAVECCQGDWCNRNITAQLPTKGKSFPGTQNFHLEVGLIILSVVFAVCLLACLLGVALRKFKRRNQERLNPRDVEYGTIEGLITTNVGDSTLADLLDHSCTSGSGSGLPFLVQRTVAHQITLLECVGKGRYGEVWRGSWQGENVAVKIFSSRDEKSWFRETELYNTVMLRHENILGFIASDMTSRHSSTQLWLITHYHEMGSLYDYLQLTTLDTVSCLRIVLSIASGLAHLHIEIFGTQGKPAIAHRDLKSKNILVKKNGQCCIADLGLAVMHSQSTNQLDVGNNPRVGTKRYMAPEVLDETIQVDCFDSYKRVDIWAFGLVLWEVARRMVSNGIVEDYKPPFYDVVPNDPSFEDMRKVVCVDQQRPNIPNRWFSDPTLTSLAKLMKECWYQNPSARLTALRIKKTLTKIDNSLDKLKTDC
In words: ALK binding assay (LANTHASCREEN TR-FRET competitive binding, displacement of Kinase Tracer 178). As to conditions: ALK2 R206H, LANTHASCREEN TR-FRET competitive binding; read-out: Binding Assay (IC50). On the technique in general: TR-FRET usually uses a lanthanide donor and a delayed reading to cut background.

In another experiment the target is T2, human ALK2 R206H (Homo sapiens, UniProt Q04771, R206H).
T2 construct: expressed in transfected cells; host or cells: HEK293 (ATCC CRL1573), lentivirus transduction, blasticidin selection
T2 sequence (Q04771 21-509 R206H): T1 sequence (Q04771 21-509 R206H)
Briefly: Cell-based ALK2-R206H cell activity assay (Smad1-Ser463/Ser465 phosphorylation by AlphaLISA in HEK293-ALK2-R206H cells). The following applies: read-out: Cell Line (Cell Assay IC50). A digest of the protocol: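 Stable HEK293 cells expressing C-terminally FLAG-tagged human ALK2 R206H (lentiviral, blasticidin-selected) were treated with compounds in 10-point, 3-fold dilutions from 10 μM or 1 μM top, in duplicate. Smad1 Ser463/Ser465 phosphorylation was read by AlphaLISA.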
On the technique in general: In Alpha technology, singlet oxygen from a donor bead excites a nearby acceptor bead.

`COC1(c2ccc(-c3cc4c(N5CCN(C(=O)NC(C)C)CC5)ccnn4c3)nc2)CCN([C@@H](C)COC(F)F)CC1` [Compound 894]: the IC50 in experiment [1] is less than 10 nM; on human ALK2 R206H it was less than 100 nM.

As for `CCOC1(c2ccc(-c3cc4c(N5CCN(C(=O)OC6CN(C(C)=O)C6)CC5)ccnn4c3)nc2)CCN(C(C)C)CC1` [Compound 895], the IC50 in experiment [1] is less than 10 nM; at human ALK2 R206H, 100 to 500 nM.

In the case of `COC1(c2ccc(-c3cc4c(N5CCN(C(=O)OC6COC6)CC5)ccnn4c3)cc2)CCN([C@@H](C)COC(F)F)CC1` [Compound 896], the results for the 50% inhibitory concentration (IC50) (in experiment [1]; at human ALK2 R206H) were less than 10 nM and less than 100 nM, respectively.

For `COC1(c2ccc(-c3cc4c(N5CCN(C(=O)OC6COC6)CC5)ccnn4c3)cc2)CCN([C@H](C)COC(F)F)CC1` [Compound 897], the IC50 in experiment [1] is less than 10 nM; at human ALK2 R206H, less than 100 nM.

In the case of `COC1(c2ccc(-c3cc4c(N5CCN(C(=O)OC6COC6)CC5)ccnn4c3)nc2)CCN([C@H](C)COC(F)F)CC1` [Compound 898], the IC50 in experiment [1] was less than 10 nM; at human ALK2 R206H, less than 100 nM.

On to `COC1(c2ccc(-c3cc4c(N5CCN(C(=O)OC6COC6)CC5)ccnn4c3)nc2)CCN([C@@H](C)COC(F)F)CC1` [Compound 899], for which the IC50 in experiment [1] is less than 10 nM; on human ALK2 R206H, less than 100 nM.

As a reminder, the IC50 is the concentration needed to halve the response being measured.
